Test results as given in patent US20230287021A1, “COMPOUNDS, COMPOSITIONS AND METHODS FOR STABILIZING TRANSTHYRETIN AND INHIBITING TRANSTHYRETIN MISFOLDING” (Protego Biopharma, Inc., priority 2020, published 2023).
Where a name gives a salt, the structure may show the parent alone.

Legend:
[1] = In vitro rat plasma stability assay, formation of tafamidis; assay type: in vitro ADME; conditions: 37° C., 2 µM test compound
Experimental: A stability assay in plasma (rat or human) was used to evaluate the ability of a compound provided herein to convert to an active TTR stabilizer. The test compound was added to plasma and incubated at 37° C. in a water bath at a concentration of 2 µM. At each time point (0, 10, 30, 60 and 120 min or 0, 60, 120, 180 and 240 min), stop solution (tolbutamide plus labetalol) was added to precipitate protein and mixed thoroughly. After centrifugation, an aliquot of supernatant was analyzed by LC-MS/MS. The percentage of formation of active agent was calculated at each time point.

[2] = In vitro rat liver S9 stability assay, formation of tafamidis; assay type: in vitro ADME; conditions: rat liver S9, 37° C., 1 µM test compound
Experimental: The test compound was added to liver S9 and incubated at 37° C. in a water bath at a concentration of 1 µM. At each time point (0, 5, 10, 20, 30 and 60 min), stop solution (tolbutamide plus labetalol) was added to precipitate protein and mixed thoroughly. After centrifugation, an aliquot of supernatant was analyzed by LC-MS/MS. The percentage of formation of active agent was calculated at each time point.

[3] = In vivo rat PK: tafamidis in plasma, CSF and brain; set-up: species or system Male Sprague-Dawley (SD) rats; conditions: for Tafamidis CSF/Plasma Ratio (iv): iv administration of test compound; for Tafamidis CSF/Plasma Ratio over 24 hrs (po): po administration of test compound
Excerpt: For a compound provided herein to be an effective TTR stabilizer drug to halt and/or prevent the ocular and cerebral TTR amyloid deposition TTR amyloidosis, it has to be able to penetrate into the brain and CSF (surrogate for eye penetration) and deliver a sufficient amount of TTR stabilizer to stop TTR dissociation. A pharmacokinetic study in rat was used to evaluate the compounds. Male Sprague-Dawley (SD) rats (200-220 g weight) were acclimated for at least 2 to 3 days before being placed on study. All animals had access to certified rodent diet and water at libitum. Appropriate amount of the test compound was accurately weighed and mixed with appropriate volume of vehicle (such as DMSO/sterile water for iv dosing or 0.5% methylcellulose homogenous suspension or solution for oral administration or as a solution in a mixture NMP/PEG400/solutol/water) to administer a dose of 2, 5 or 10 mg/kg. For IV dosing the test compound was administered via tail vein or indwelling cannula. For oral dosing, the test compound was administered by oral gavage. Blood and CSF samples were collected at selected timepoints. Blood collection was performed from saphenous vein or tail vein of each animal into polypropylene tubes at each timepoint. All blood samples were transferred into EDTA-K2 tubes and centrifuged for 15 minutes at 4° C. for plasma collection. Plasma samples were kept at -80° C. until LC/MSMS analysis. CSF was collected from cisterna magna at each timepoint and quick frozen over dry ice and kept at -80° C. until LC/MSMS analysis. Brains were harvested immediately after the terminal bleeding (~ 24 hrs post dosing). The blood of the brain was perfused with normal saline. The brain was quickly picked and placed into centrifuge tube. The weight of brain samples was recorded. 4-Fold homogenization solution (MeOH/15 mM PBS (1:2)) was added into the tube according to the weighed samples. The brain was homogenized using a Polytron (3 strokes or more until homogenous, each 30 seconds) on wet ice. The samples were quick frozen over dry ice and kept at -80° C. until LC/MSMS analysis. Using a LC-MSMS method for the quantitative determination of test compound in biological matrixes, amount of test compound and active agent were measured in plasma and CSF at selected timepoints post-dosing and in brain at 24 hrs post dosing. Plasma concentration versus time data was analyzed by non-compartmental approaches using the Phoenix WinNonlin 6.3 software program. As reference, an oral dose of 2 mg/kg of tafamidis gave a CSF to plasma ratio over 24 hrs around 0.01 and a brain to plasma ratio at 24 hrs around 0.02.

Compound	Formation of tafamidis at 120 min [1]	Formation of tafamidis at 60 min [2]	Tafamidis CSF/Plasma Ratio (iv) [3]	Tafamidis CSF/Plasma Ratio over 24 hrs (po) [3]
CN1CCC(OC(=O)c2ccc3nc(-c4cc(Cl)cc(Cl)c4)oc3c2)C1 (centres unmarked) [Compound 7, 1-methylpyrrolidin-3-yl 2-(3,5-dichlorophenyl)benzo[d]oxazole-6-carboxylate]	D (D is ≥75%)	A (A is <25%)	C (C is ≥0.02)	C (C is ≥0.02)
CN1CCC(OC(=O)c2ccc3nc(-c4cc(Cl)cc(Cl)c4)oc3c2)CC1 [Compound 11]	A (A is <25%)	A (A is <25%)	B (B is ≥0.015 to <0.02)	A (A is < 0.015)
O=C(OC1CCNCC1)c1ccc2nc(-c3cc(Cl)cc(Cl)c3)oc2c1 [Compound 13, hydrochloride]	A (A is <25%)	A (A is <25%)	B (B is ≥0.015 to <0.02)	B (B is ≥0.015 to <0.02)
CN1CCC(OC(=O)c2ccc3nc(-c4cc(Cl)cc(Cl)c4)oc3c2)C(F)(F)C1 (centres unmarked) [Compound 14, 3,3-difluoro-1-methylpiperidin-4-yl 2-(3,5-dichlorophenyl) benzo [d]oxazole-6-carboxylate]	A (A is <25%)		B (B is ≥0.015 to <0.02)	
CCN(CC)CCOC(=O)c1ccc2nc(-c3cc(Cl)cc(Cl)c3)oc2c1 [Compound 35, 2-(diethylamino)ethyl 2-(3,5-dichlorophenyl)benzo[d]oxazole-6-carboxylate hydrochloride]	C (C is ≥50 to <75%)	B (B is ≥25 to <50%)	B (B is ≥0.015 to <0.02)	
O=C(OCCN1CCCC1)c1ccc2nc(-c3cc(Cl)cc(Cl)c3)oc2c1 [Compound 37, 2-(pyrrolidin-1-yl)ethyl 2-(3,5-dichlorophenyl)benzo[d]oxazole-6-carboxylate]	B (B is ≥25 to <50%)	B (B is ≥25 to <50%)	A (A is <0.015)	
CCN(CC)CCCOC(=O)c1ccc2nc(-c3cc(Cl)cc(Cl)c3)oc2c1 [Compound 38, 3-(diethylamino)propyl 2-(3,5-dichlorophenyl)benzo[d] oxazole-6-carboxylate]	B (B is ≥25 to <50%)	A (A is <25%)	B (B is ≥0.015 to <0.02)	B (B is ≥0.015 to <0.02)
O=C(OCCCN1CCC1)c1ccc2nc(-c3cc(Cl)cc(Cl)c3)oc2c1 [Compound 39, 3-(azetidin-1-yl)propyl 2-(3,5-dichlorophenyl)benzo[d] oxazole-6-carboxylate]	A (A is <25%)	A (A is <25%)	B (B is ≥0.015 to <0.02)	
O=C(OCCCN1CCCC1)c1ccc2nc(-c3cc(Cl)cc(Cl)c3)oc2c1 [Compound 40, 3-(pyrrolidin-1-yl)propyl 2-(3,5-dichlorophenyl)benzo[d] oxazole-6-carboxylate]	B (B is ≥25 to <50%)	A (A is <25%)	B (B is ≥0.015 to <0.02)	
CN(C)[C@H]1CCC[C@@H]1OC(=O)c1ccc2nc(-c3cc(Cl)cc(Cl)c3)oc2c1 [Compound 116]		A (A is <25%)		A (A is < 0.015)
CC(CN1CCOCC1)OC(=O)c1ccc2nc(-c3cc(Cl)cc(Cl)c3)oc2c1 (centres unmarked) [Compound 143]		B (B is ≥25 to <50%)		A (A is < 0.015)

Next, values leading:

Formation of tafamidis at 120 min [1]	Formation of tafamidis at 60 min [2]	Tafamidis CSF/Plasma Ratio (iv) [3]	Tafamidis CSF/Plasma Ratio over 24 hrs (po) [3]	Compound
B (B is ≥25 to <50%)	A (A is <25%)	C (C is ≥0.02)	A (A is < 0.015)	CC(CN(C)C)OC(=O)c1ccc2nc(-c3cc(Cl)cc(Cl)c3)oc2c1 (single isomer, unassigned) [Compound 46, (S*)-1-(dimethylamino)propan-2-yl 2-(3,5-dichlorophenyl)benzo[d]oxazole-6-carboxylate]
D (D is ≥75%)	A (A is <25%)		A (A is < 0.015)	CC(CN(C)C)OC(=O)c1ccc2nc(-c3cc(Cl)cc(Cl)c3)oc2c1 (single isomer, unassigned) [Compound 47, (R*)-1-(dimethylamino)propan-2-yl 2-(3,5-dichlorophenyl)benzo [d] oxazole-6-carboxylate]
A (A is <25%)	A (A is <25%)	B (B is ≥0.015 to <0.02)		CN(C)CCCOC(=O)c1ccc2nc(-c3cc(Cl)cc(Cl)c3)oc2c1 [Compound 1, 3-(Dimethylamino)propyl 2-(3,5-dichlorophenyl)benzo[d]oxazole-6-carboxylate]
A (A is <25%)		B (B is ≥0.015 to <0.02)		N[C@@H](Cc1ccc(OC(=O)c2ccc3nc(-c4cc(Cl)cc(Cl)c4)oc3c2)cc1)C(=O)O [Compound 23, (S)-2-amino-3-(4-((2-(3,5-dichlorophenyl)benzo[d]oxazole-6-carbonyl)oxy)phenyl)propanoic acid hydrochloride]
A (A is <25%)		A (A is <0.015)		N[C@@H](Cc1cccc(OC(=O)c2ccc3nc(-c4cc(Cl)cc(Cl)c4)oc3c2)c1)C(=O)O [Compound 28, (S)-2-amino-3-(3-((2-(3,5-dichlorophenyl)benzo[d]oxazole-6-carbonyl)oxy)phenyl) propanoic acid hydrochloride]
C (C is ≥50 to <75%)		A (A is <0.015)		O=C(OCCN1CCC1)c1ccc2nc(-c3cc(Cl)cc(Cl)c3)oc2c1 [Compound 36, 2-(azetidin-1-yl)ethyl 2-(3,5-dichlorophenyl)benzo[d]oxazole-6-carboxylate]
B (B is ≥25 to <50%)		A (A is <0.015)		CCN(C)CCCOC(=O)c1ccc2nc(-c3cc(Cl)cc(Cl)c3)oc2c1 [Compound 48, 3-(ethyl(methyl)amino)propyl 2-(3,5-dichlorophenyl)benzo[d] oxazole-6-carboxylate hydrochloride]
C (C is ≥50 to <75%)		C (C is ≥0.02)		CC(CCN(C)C)OC(=O)c1ccc2nc(-c3cc(Cl)cc(Cl)c3)oc2c1 (centres unmarked) [Compound 49, 4-(dimethylamino)butan-2-yl 2-(3,5-dichlorophenyl)benzo[d] oxazole-6-carboxylate hydrochloride]
A (A is <25%)		A (A is <0.015)		CC(COC(=O)c1ccc2nc(-c3cc(Cl)cc(Cl)c3)oc2c1)CN(C)C (centres unmarked) [Compound 50, 3-(dimethylamino)-2-methylpropyl 2-(3,5-dichlorophenyl) benzo [d] oxazole-6-carboxylate]
